Laboratory results: patent publication US9850283B2, “Macrocyclic inhibitors of the PD-1/PD-L1 and CD80(B7-1)/PD-L1 protein/protein interactions” (BRISTOL-MYERS SQUIBB COMPANY, priority 2013, dated 2017)
Like-named read-outs stand apart in the source and are kept apart here. Positions of bridges follow the written chain, without caps; N, C: chain ends. Non-standard residues stand in square brackets, D forms with d. Residues, ends and D or L forms follow the SMILES beside them. ξ: configuration not given here. Pro(4R-Bn) = O=C(O)[C@@H]1C[C@@H](Cc2ccccc2)CN1; Phe(4-CONH2) = NC(=O)c1ccc(C[C@H](N)C(=O)O)cc1; Phe(3-Cl) = N[C@@H](Cc1cccc(Cl)c1)C(=O)O; Bta = N[C@@H](Cc1csc2ccccc12)C(=O)O; Hyp = O=C(O)[C@@H]1C[C@@H](O)CN1; NMeF = CN[C@@H](Cc1ccccc1)C(=O)O; NMeNle = CCCC[C@H](NC)C(=O)O; NMeM = CN[C@@H](CCSC)C(=O)O; NMeA = CN[C@@H](C)C(=O)O; Dab = NCC[C@H](N)C(=O)O; ξC = NC(CS)C(=O)O; Sar = CNCC(=O)O

Columns and labels:
[1] = target: T1, LK35.2-hPD-L1 cells / PE-labeled PD-1-Ig (Homo sapiens, UniProt Q9NZQ7); assay: LK35.2-hPD-L1 cell binding high-content screening assay; format: cell-based; settings: cluster symbol, read-out: CBA IC50 cluster
T1 construct: expressed in transfected cells; host or cells: LK35.2 mouse B cell line
In short: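 Using overnight-cultured LK35.2-hPD-L1 mouse B cells, compound was co-incubated with phycoerythrin-tagged human PD-1-Ig (final 1 nM) at 37 °C for one hour. Unbound label was removed by triple dPBS washing prior to high-content image acquisition and analysis.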

[2] = target: T2, Human PD-L1/PD-1 (Homo sapiens, UniProt Q9NZQ7); assay: HTRF PD-1-Ig/PD-L1-His binding assay (human PD-L1); settings: cluster symbol; read-out: HTRF IC50 cluster
T2 construct: made in house; host or cells: HEK293T
In short: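 HTRF read-out: Eu cryptate anti-Ig mAb 1 nM final, APC anti-His mAb 20 nM final, added over the binding reaction. Proteins were PD-1-Ig and PD-L1-His ectodomain fusions. Buffer was dPBS, 0.1% BSA, 0.05% Tween-20.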

[3] = cell line of CBA not given (LK35.2-hPD-L1 or 293T-hPD-L1)
[4] = cell binding assay, cell line not given

T1 sequence (Q9NZQ7 19-290): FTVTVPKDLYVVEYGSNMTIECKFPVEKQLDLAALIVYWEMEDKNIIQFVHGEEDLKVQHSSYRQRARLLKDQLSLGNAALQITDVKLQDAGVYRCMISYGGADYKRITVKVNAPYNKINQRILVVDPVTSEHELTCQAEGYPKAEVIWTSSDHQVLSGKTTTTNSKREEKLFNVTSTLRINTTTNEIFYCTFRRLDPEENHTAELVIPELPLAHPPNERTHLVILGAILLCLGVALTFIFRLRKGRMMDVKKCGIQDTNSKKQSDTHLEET
T2 sequence (Q9NZQ7 with tags, fused parts or gaps): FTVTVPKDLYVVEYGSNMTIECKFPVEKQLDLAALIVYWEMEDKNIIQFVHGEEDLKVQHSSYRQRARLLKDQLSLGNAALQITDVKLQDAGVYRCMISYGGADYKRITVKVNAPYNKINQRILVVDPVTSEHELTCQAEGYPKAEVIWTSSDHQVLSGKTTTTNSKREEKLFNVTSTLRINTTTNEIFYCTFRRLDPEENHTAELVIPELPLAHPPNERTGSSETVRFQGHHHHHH

**Q.** Which results are given for CCCC[C@H]1C(=O)N(C)CC(=O)N[C@@H](CC(=O)O)C(=O)N[C@@H](C(C)C)C(=O)N(C)[C@@H](Cc2ccccc2)C(=O)N[C@@H](Cc2ccc(O)cc2)C(=O)N2CCC[C@@H]2C(=O)N[C@@H](Cc2c[nH]c3ccccc23)C(=O)N[C@@H](Cc2ccc(O)cc2)C(=O)N[C@@H](CC(C)C)C(=O)N[C@H](C(N)=O)CSCC(=O)N[C@@H](Cc2cccc(Cl)c2)C(=O)N(C)[C@@H](Cc2ccccc2)C(=O)N1C [Example 3166] ({CH2CO}-[Phe(3-Cl)][NMeF][NMeNle][Sar]DV[NMeF]Y[dP]WYLC-NH2; thioether N-13)?
**A.** IC50 [1, 3]: 0.158 to 4.71 nM; IC50 [2]: 6.76 to 30.3 nM

**Q.** For CCCC[C@H]1C(=O)N(C)[C@@H](CCCC)C(=O)N[C@@H](C)C(=O)N[C@H](C(=O)NCC(N)=O)CSCC(=O)N[C@@H](Cc2ccc(O)cc2)C(=O)N(C)[C@@H](C)C(=O)N[C@@H](CC(=O)O)C(=O)N2CCC[C@H]2C(=O)N[C@@H](Cc2c[nH]cn2)C(=O)N[C@@H](CCC(=O)O)C(=O)N2C[C@H](Cc3ccccc3)C[C@H]2C(=O)N[C@@H](Cc2c[nH]c3ccccc23)C(=O)N[C@@H](CCN)C(=O)N[C@@H](Cc2c[nH]c3ccccc23)C(=O)N1C [Example 13008] ({CH2CO}-Y[NMeA]DPHE[Pro(4R-Bn)]W[Dab]W[NMeNle][NMeNle]ACG-NH2; thioether N-14), which IC50 [1, 4] is on record?
**A.** Its IC50 is 0.158 to 4.71 nM.

**Q.** What about the IC50 [2] of the same compound?
**A.** Its IC50 is 0.385 to 6.74 nM.

**Q.** For CCCC[C@H]1C(=O)N(C)[C@@H](CCCC)C(=O)N[C@@H](CCCNC(=N)N)C(=O)N[C@H](C(=O)NCC(N)=O)CSCC(=O)N[C@@H](Cc2ccccc2)C(=O)N(C)[C@@H](C)C(=O)N[C@@H](CC(N)=O)C(=O)N2CCC[C@H]2C(=O)N[C@@H](CC(=O)O)C(=O)N[C@@H](CC(C)C)C(=O)N(C)CC(=O)N[C@@H](Cc2c[nH]c3ccccc23)C(=O)N[C@@H](CO)C(=O)N[C@@H](Cc2c[nH]c3ccccc23)C(=O)N1C [Example 1064] ({CH2CO}-F[NMeA]NPDL[Sar]WSW[NMeNle][NMeNle]RCG-NH2; thioether N-14), which IC50 [1, 3] is on record?
**A.** Its IC50 is over 74.3 nM.

**Q.** And the IC50 [2]?
**A.** The IC50 was over 30.5 nM.

**Q.** For CCCC[C@H]1C(=O)N(C)CC(=O)N[C@@H](CC(=O)O)C(=O)N[C@@H](COC)C(=O)N(C)[C@@H](Cc2ccccc2)C(=O)N[C@@H](Cc2ccc(O)cc2)C(=O)N(C)CC(=O)N[C@@H](Cc2c[nH]c3ccccc23)C(=O)N[C@@H](Cc2ccc(O)cc2)C(=O)N[C@@H](CC(C)C)C(=O)N[C@H](C(=O)NCC(N)=O)CSCC(=O)N[C@@H](Cc2ccccc2)C(=O)N(C)[C@@H](Cc2ccccc2)C(=O)N1C [Example 3155] ({CH2CO}-F[NMeF][NMeNle][Sar]DS(Me)[NMeF]Y[Sar]WYLCG-NH2; thioether N-13), which IC50 [1, 3] is on record?
**A.** The IC50 was over 74.3 nM.

**Q.** What about the IC50 [2] of the same compound?
**A.** The IC50 was over 30.5 nM.

**Q.** How did the IC50 [1, 4] turn out when CCCC[C@H]1C(=O)N[C@@H](CCCNC(=N)N)C(=O)NC(C(=O)NCC(N)=O)CSCC(=O)N[C@@H](Cc2ccc(O)cc2)C(=O)N(C)[C@@H](C)C(=O)N[C@@H](CC(N)=O)C(=O)N2CCC[C@H]2C(=O)N[C@@H](Cc2cnc[nH]2)C(=O)N[C@@H](CC(C)C)C(=O)N2C[C@H](O)C[C@H]2C(=O)N[C@@H](Cc2c[nH]c3ccccc23)C(=O)N[C@@H](CO)C(=O)N[C@@H](Cc2csc3ccccc23)C(=O)N(C)[C@@H](CCSC)C(=O)N1C (stereo partly drawn) [Example 9025] ({CH2CO}-Y[NMeA]NPHL[Hyp]WS[Bta][NMeM][NMeNle]R[ξC]G-NH2; thioether N-14) was run?
**A.** The IC50 was 0.158 to 4.71 nM.

**Q.** What about the IC50 [2] of the same compound?
**A.** The IC50 was 0.385 to 6.74 nM.

**Q.** Which IC50 [1, 4] does the source give for CCCC[C@H]1C(=O)N(C)[C@@H](CCCC)C(=O)N[C@@H](CCCNC(=N)N)C(=O)N[C@H](C(=O)NCC(N)=O)CSCC(=O)N[C@@H](Cc2ccc(C(N)=O)cc2)C(=O)N(C)[C@@H](C)C(=O)N[C@@H](CC(N)=O)C(=O)N2CCC[C@H]2C(=O)N[C@@H](Cc2cnc[nH]2)C(=O)N[C@@H](CC(C)C)C(=O)N2C[C@H](O)C[C@H]2C(=O)N[C@@H](Cc2c[nH]c3ccccc23)C(=O)N[C@@H](CO)C(=O)N[C@@H](Cc2c[nH]c3ccccc23)C(=O)N1C [Example 7050] ({CH2CO}-[Phe(4-CONH2)][NMeA]NPHL[Hyp]WSW[NMeNle][NMeNle]RCG-NH2; thioether N-14) here?
**A.** The IC50 was 4.78 to 72.9 nM.

**Q.** What about the IC50 [2] of the same compound?
**A.** Its IC50 is 0.385 to 6.74 nM.
